# Results taken from US12193465B2, “Materials and methods for extending shelf-life of foods” (JP Laboratories, Inc., priority 2021, dated 2025).
# How the values were obtained:
# [1] = Odor and softening/mushiness of pre-soaked grains; conditions: Odor, White rice, control 5 days
# Description: (§1) Most of the foods changed color or texture.
# (§2) These bags were sealed with a heat sealer.
# fungus = assay: Fungus growth on treated foods stored in closed containers at room temperature; conditions: for Spoilage Time - Sample: Fungus;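 on Effectiveness on ginger: compared with untreated control ginger in closed containers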
# Description: as §1
# Glass jars and bottles were also used. The containers were snap-closed or with a lid.
# as §2
# (§3) The assembly was shaken periodically.
# avocado = assay: Softening / rotten inside (spoiled flesh) of avocado; conditions: for Spoilage Time - Sample: Softening, Avocado, control 2 days
# Description: as §1, §3
# [2] = Color loss of meat and fish; conditions: meat and fish
# Description: as §1, §2
smiles,measurement,setting,value
"C=CCN=C=S [AI, allyl isothiocyanate]",Spoilage Time - Sample,"[1]; Example 72, 5 ml of 10% allyl isothiocyanate solution in water",21 days
same,Spoilage Time - Sample,"[1]; Example 72, 5 ml of 10% allyl isothiocyanate solution in water, listed as allyl isothiocyanate",> 21 days
same,Spoilage Time - Sample,"[1]; Example 73, Sachet",21 days
same,Fungus growth,"fungus; Example 12, Paneer (Indian cottage cheese), sachet",> 10 days
same,Spoilage Time - Sample,"fungus; Example 20, Apple juice, 0.02 g, control 7 days",13 days
same,Spoilage Time - Sample,"fungus; Example 21, Beet juice, 0.02 g, control 7 days",13 days
same,Spoilage Time - Sample,"fungus; Example 22, Blueberries, 16 hrs P-E, control 3 days",24 days
same,Spoilage Time - Sample,"fungus; Example 25, Broccoli, 0.25 hr P-E, control 6 days",9 days
same,Spoilage Time - Sample,"fungus; Example 26, Broccoli, Sachet, control 6 days",9 days
same,Spoilage Time - Sample,"fungus; Example 27, Broccoli, 2 hrs P-E, control 5 days",16 days
same,Spoilage Time - Sample,"fungus; Example 28, Carrot juice, 0.02 g, control 12 days",13 days
same,Spoilage Time - Sample,"fungus; Example 30, Chickpeas, Sachet, control 7 days",9+ days
same,Spoilage Time - Sample,"fungus; Example 33, Fresh, raw, shelled undried peanuts, Sachet, control 18 days",46 days
same,Spoilage Time - Sample,"fungus; Example 33, Fresh, raw, shelled undried peanuts, Sachet, control 18 days, listed as allyl isothiocyanate",significantly delayed or prevented
same,Spoilage Time - Sample,"fungus; Example 35, 5.3% Gelatin, 175 bloom in water, Sachet, control 9 days",47 days
same,Spoilage Time - Sample,"fungus; Example 37, 4% Guar Gum in water, Sachet, control 5 days",47 days
same,Spoilage Time - Sample,"fungus; Example 39, Guar beans, 2 hrs P-E, control 6 days",17 days
same,Spoilage Time - Sample,"fungus; Example 40, Honeydew juice, 0.02 g, control 12 days",30 days
same,Spoilage Time - Sample,"fungus; Example 42, Lychee, 0.5 hr P-E, control 7 days",11 days
same,Spoilage Time - Sample,"fungus; Example 44, Mixed Legumes, 64 hrs P-E, 6 hrs soaking, control 11 days",17 days
same,Spoilage Time - Sample,"fungus; Example 45, Monterey cheese, Sachet, control 7 days",10+ days
same,Spoilage Time - Sample,"fungus; Example 45, Monterey cheese, Sachet, control 7 days, listed as allyl isothiocyanate",> 10 days
same,Spoilage Time - Sample,"fungus; Example 47, Pomegranate juice, 0.02 g, control 7 days",13 days
same,Spoilage Time - Sample,"fungus; Example 48, Puri (Indian fried bread), 16 hrs P-E, control 5 days",70+ days
same,Spoilage Time - Sample,"fungus; Example 49, Raspberry, 1 hr P-E, control 5 days",9 days
same,Spoilage Time - Sample,"fungus; Example 50, Raspberry, 0.33 hr P-E, control 5 days",31 days
same,Spoilage Time - Sample,"fungus; Example 51, Raw milk cheddar cheese, 1 hr P-E & Sachet, control 6 days",35 days
same,Spoilage Time - Sample,"fungus; Example 53, Rotala (Indian millet bread), 16 hrs P-E, control 5 days",70+ days
same,Spoilage Time - Sample,"fungus; Example 56, 26.7% Starch solution in water, 0.25 ml of 0.42% solution, control 5 days",47 days
same,Spoilage Time - Sample,"fungus; Example 57, 26.7% Starch solution in water, Sachet, control 5 days",47 days
same,Spoilage Time - Sample,"fungus; Example 58, Strawberries, 5 hrs P-E, control 2 days",15 days
same,Spoilage Time - Sample,"fungus; Example 59, Tindora, 2 hrs P-E, control 6 days",40 days
same,Spoilage Time - Sample,"fungus; Example 60, Tofu, Sachet, control 6 days",9+ days
same,Spoilage Time - Sample,"fungus; Example 60, Tofu, Sachet, control 6 days, listed as allyl isothiocyanate",> 9 days
same,Spoilage Time - Sample,"fungus; Example 62, Unshelled peanuts, 5 ml of 0.42% solution, control 5 days",8 days
same,Spoilage Time - Sample,"fungus; Example 62, Unshelled peanuts, 5 ml of 0.42% solution, control 5 days, listed as allyl isothiocyanate",either prevented or significantly delayed
same,Spoilage Time - Sample,"fungus; Example 63, Wild Rice, 5 ml of 10% allyl isothiocyanate solution in water, control 11 days",21 days
same,Spoilage Time - Sample,"fungus; Example 64, Wild Rice, Sachet, control 11 days",21 days
same,Spoilage Time - Sample,"fungus; Example 89, Mixed Legumes, AI & Humidity, 64 hrs P-E AI, 6 hrs soaking in water, control 11 days",17 days
same,Fungus growth,"fungus; Indian millet bread, Indian wheat bread (roti), cheesecake, sachet or pre-exposure to vapors",either prevented or significantly delayed
same,Effectiveness in preventing fungus,fungus; compared with ethyl isothiocyanate,more effective
same,Fungus growth,"fungus; fresh cold pressed carrot, red cabbage and beet juice, Examples 28, 21, 13",either prevented or significantly delayed
same,Fungus growth,"fungus; fresh cold pressed pomegranate, blackberry, orange, red grape, apple, blueberry and honeydew juice",either prevented or significantly delayed
same,Shelf-life of vegetable juices,"fungus; fresh, cold pressed tomatillo, lime and green cabbage juices",improved shelf-life
same,Effectiveness on ginger,"fungus; ginger, pre-exposure and sachet method",found effective
same,Fungus growth,"fungus; guar gum and starch, Examples 37, 56 & 57",either prevented or significantly delayed
same,Shelf-life of raw milk yogurt,fungus; raw milk yogurt,extended shelf-life
same,Fungus growth,"fungus; strawberries, raspberries, blackberries and lychee",either prevented or significantly delayed
same,Spoilage Time - Sample,"avocado; Example 77, 0.25 hr P-E",2 days
same,Spoilage Time - Sample,"avocado; Example 78, 2 hrs P-E",2 days
same,Spoiling of the flesh with development of fungus,"avocado; avocados, Examples 77, 78, 107, 108, 113 & 171",significantly delayed
same,Improvements with meat and fish,[2],demonstrated improvements
